# According to patent publication US20170042152A1, “SAFENED HERBICIDAL COMPOSITIONS COMPRISING PYRIDINE CARBOXYLIC ACIDS” (priority 2015, published 2017):
# Legend:
# Settings in all cases: 20 g ae/ha herbicide (triisopropanol amine salt), no safener, post-emergence, mean
# winter wheat (TRZAW) = assay: Small plot field trial, crop safety; type: in vivo, Triticum aestivum
# Protocol: (§1) The triisopropanol amine salts of herbicides of formulas I-G-A, I-G-B and I-G-C were tested with and without cloquintocet-mexyl in small plot field trials across various ecozones to evaluate the crop safety of these compounds on […] cereals including winter wheat and durum wheat.
# (§2) All herbicide treatments were applied post-emergence in the spring to early summer. Herbicides were applied with bicycle or tractor-mounted sprayers using carbon dioxide (CO2) as a propellant. The sprayers delivered a uniform spray pattern that provided thorough coverage of the foliage using a 150 or 200 L/ha spray volume. At the time of herbicide applications, winter wheat was at the two leaf growth stage and durum wheat was at the 2-3 leaf growth stage.
# (§3) Phytotoxicity to cereal crops was visually assessed as percent overall injury, compared to an untreated control plot. The overall injury assessments were based on visual ratings of growth inhibition, chlorosis, and delay in maturity. At late ratings (54-57 days after application), percent visual seed head deformity and reduction in seed formation were also assessed. Trials were designed as randomized complete blocks with four replicates. In general, three to four replicates were assessed for each treatment.
# lambsquarters (CHEAL) = assay: Small plot field trial, weed growth reduction; type: in vivo, Chenopodium album
# Canada thistle (CIRAR) = assay: Small plot field trial, weed growth reduction; type: in vivo, Cirsuim arvensis
# durum wheat (TRZDU) = assay: Small plot field trial, crop safety; type: in vivo, Triticum durum
# Protocol: as §1, §2, §3
Compound,"Instances of TRZAW grain reduction, % of untreated (winter wheat (TRZAW))","TRZAW grain formation reduction, % of untreated (winter wheat (TRZAW))","Growth reduction of CHEAL, % of untreated (lambsquarters (CHEAL))","Growth reduction of CIRAR, % of untreated (Canada thistle (CIRAR))","TRZDU Visual head deformation, % of untreated (durum wheat (TRZDU))","TRZDU Visual injury, % of untreated (durum wheat (TRZDU))"
CC(F)c1nc(C(=O)O)c(Cl)c(N)c1F (stereo not drawn) [formula I-G-B],83.3 % of untreated,68.3 % of untreated,100 % of untreated,85 % of untreated,6.4 % of untreated,6.4 % of untreated
CC(F)(F)c1nc(C(=O)O)c(Cl)c(N)c1F [formula I-G-C],–,–,100 % of untreated,–,23.6 % of untreated,33.6 % of untreated
